According to patent US20180017546A1, “METHODS OF ADMINISTERING AND EVALUATING NITROGEN SCAVENGING DRUGS FOR THE TREATMENT OF HEPATIC ENCEPHALOPATHY” (Horizon Therapeutics, LLC, priority 2012, published 2018):
Read-outs that look alike come from different tables or passages of the source.

Assays:
[1] = Conversion of PAA prodrug to urinary PAGN in 130 HE patients at steady state dosing; format: in vivo, human; details: steady state dosing with NaPBA or equivalent dose of HPN-100
Experimental: As disclosed herein, additional trials have been performed to evaluate the conversion of PAA to urinary PAGN in subjects with HE. Urinary PAGN output was measured in 130 HE patients during steady state dosing with either NaPBA or an equivalent dose of HPN-100. As summarized in Table 11, the mean percent conversion of PAA prodrug to urinary PAGN in HE patients was about 57%, with a 95% confidence interval range of 52-63%.

[2] = system: subjects with cirrhosis and HE; test: HALT-HE clinical trial: count of HE events over 16 weeks by plasma ammonia level; format: in vivo, human
Experimental: The relationship between HE events and fasting ammonia levels was evaluated in subjects from the HALT-HE clinical trial (HPN-100-008, ClinicalTrials.gov identifier NCT00999167). To be eligible for HE analysis, subject had to (1) be included in the HALT-HE (Part B) safety population, (2) have at least one treatment with a study drug (either HPN-100 or placebo), and (3) have a quantifiable measurement of plasma ammonia from a blood specimen drawn at the visit and time point of interest. Of the 178 total subjects enrolled in the HALT-HE study and included in the safety population, 171 met the additional criteria.
Fasting ammonia levels were measured on day 1 (baseline) and at days 7 and 14. Day 1 values were derived from the measurement closest to, but prior to, initiation of dosing. Day 7 and 14 values were obtained from the nominal visit day and time point (pre-dose or 4-hour). To account for differences in local laboratories used during the clinical trial, local measurements of ammonia were standardized to an upper limit of normal (ULN) of 35 μmol/L according to the following formula:
Ammoniastd=Ammonialocal*(35/ULN of Ammonialocal).
[…] An HE event was defined as the occurrence of either (1) a West Haven Grade 2 or above or (2) a West Haven Grade 1 AND an asterixis grade increase of 1, if baseline West Haven was 0.
To describe the relationship between plasma ammonia levels and HE events, ammonia levels at the nominal times were initially grouped into five categories as multiples of the standardized ULN (35 μmol/L): (1) [0-≦0.5], (2) [0.5-≦1.0], (3) [1.0-≦1.5], (4) [1.5-≦2.0], and (5) [>2.0].
Each subject had between zero and eight HE episodes over the course of their exposure to study drug. The relationship between ammonia at a given nominal time and the number of HE events was modeled using a negative binomial model whereby the effect of study drug was considered only after controlling for ammonia level. […] Based on the model, the number of HE events was estimated for each level of ammonia. By comparing each level of ammonia to the lowest level, the pattern of the relationship could not only be described but also statistically tested through a priori contrasts.
The relationship between HE events and ammonia levels at day 7 (pre-dose), day 7 (four hours after dosing), day 14 (pre-dose), and day 14 (four hours after dosing) for each of these groups is summarized in FIGS. 2-6. […] The relationship between HE events and ammonia levels at day 1, day 7 (pre-dose), day 7 (four hours after dosing), day 14 (pre-dose), and day 14 (four hours after dosing) for each of these groups is summarized in Tables 1-5, respectively. In each table, the first three rows for each treatment group show results for the three category model ([0-1.0], [>1.0-1.5], and [>1.5]), while the next two rows show results for the two category model ([0-1.5] and [>1.5]). Note that, based on the statistical methodology, estimation of HE events for input category >1.5 in a two category model is not necessarily equal to the result for the three category model.

[3] = cited from earlier work; for Mean percent conversion of HPN-100 to urinary PAGN: 8 subjects
[4] = ammonia on day 7, four hours post-dose, [0-1.0] ULN, three category model
[5] = ammonia on day 7, four hours post-dose, [0-1.5] ULN, two category model
[6] = ammonia on day 7, four hours post-dose, [>1.0-1.5] ULN, three category model
[7] = ammonia on day 7, four hours post-dose, [>1.5] ULN, three category model
[8] = ammonia on day 7, four hours post-dose, [>1.5] ULN, two category model
[9] = ammonia on day 14 (pre-dose), [0-1.0] ULN, three category model
[10] = ammonia on day 14 (pre-dose), [0-1.5] ULN, two category model
[11] = ammonia on day 14 (pre-dose), [>1.0-1.5] ULN, three category model
[12] = ammonia on day 14 (pre-dose), [>1.5] ULN, three category model
[13] = ammonia on day 14 (pre-dose), [>1.5] ULN, two category model
[14] = ammonia on day 14, four hours post-dose, [0-1.0] ULN, three category model
[15] = ammonia on day 14, four hours post-dose, [0-1.5] ULN, two category model
[16] = ammonia on day 14, four hours post-dose, [>1.0-1.5] ULN, three category model
[17] = ammonia on day 14, four hours post-dose, [>1.5] ULN, three category model
[18] = ammonia on day 14, four hours post-dose, [>1.5] ULN, two category model
[19] = pre-dose ammonia on day 1, [0-1.0] ULN, three category model
[20] = pre-dose ammonia on day 1, [0-1.5] ULN, two category model
[21] = pre-dose ammonia on day 1, [>1.0-1.5] ULN, three category model
[22] = pre-dose ammonia on day 1, [>1.5] ULN, three category model
[23] = pre-dose ammonia on day 1, [>1.5] ULN, two category model
[24] = pre-dose ammonia on day 7, [0-1.0] ULN, three category model
[25] = pre-dose ammonia on day 7, [0-1.5] ULN, two category model
[26] = pre-dose ammonia on day 7, [>1.0-1.5] ULN, three category model
[27] = pre-dose ammonia on day 7, [>1.5] ULN, three category model
[28] = pre-dose ammonia on day 7, [>1.5] ULN, two category model

## O=C(O)CCCc1ccccc1 [sodium PBA, reference compound]
[1]
  Mean percent conversion of PAA prodrug to urinary PAGN: consistent

## O=C(CCCc1ccccc1)OCC(COC(=O)CCCc1ccccc1)OC(=O)CCCc1ccccc1 [HPN-100, glyceryl tri-[4-phenylbutyrate]]
[2]; [4]
  No. of per-subject HE Events Estimated over 16 weeks: 0.16
  No. of per-subject HE Events Estimated over 52 weeks: 0.51
  No. of per-subject HE Events Max: 2
  No. of per-subject HE Events Min: 0
[2]; [5]
  No. of per-subject HE Events Estimated over 16 weeks: 0.41
  No. of per-subject HE Events Estimated over 52 weeks: 1.34
  No. of per-subject HE Events Max: 5
  No. of per-subject HE Events Min: 0
[2]; [6]
  No. of per-subject HE Events Estimated over 16 weeks: 0.88
  No. of per-subject HE Events Estimated over 52 weeks: 2.85
  No. of per-subject HE Events Max: 5
  No. of per-subject HE Events Min: 0
[2]; [7]
  No. of per-subject HE Events Estimated over 16 weeks: 1.16
  No. of per-subject HE Events Estimated over 52 weeks: 3.77
  No. of per-subject HE Events Max: 4
  No. of per-subject HE Events Min: 0
[2]; [8]
  No. of per-subject HE Events Estimated over 16 weeks: 1.18
  No. of per-subject HE Events Estimated over 52 weeks: 3.85
  No. of per-subject HE Events Max: 4
  No. of per-subject HE Events Min: 0
[2]; [9]
  No. of per-subject HE Events Estimated over 16 weeks: 0.36
  No. of per-subject HE Events Estimated over 52 weeks: 1.18
  No. of per-subject HE Events Max: 5
  No. of per-subject HE Events Min: 0
[2]; [10]
  No. of per-subject HE Events Estimated over 16 weeks: 0.37
  No. of per-subject HE Events Estimated over 52 weeks: 1.21
  No. of per-subject HE Events Max: 5
  No. of per-subject HE Events Min: 0
[2]; [11]
  No. of per-subject HE Events Estimated over 16 weeks: 0.40
  No. of per-subject HE Events Estimated over 52 weeks: 1.29
  No. of per-subject HE Events Max: 2
  No. of per-subject HE Events Min: 0
[2]; [12]
  No. of per-subject HE Events Estimated over 16 weeks: 1.29
  No. of per-subject HE Events Estimated over 52 weeks: 4.21
  No. of per-subject HE Events Max: 4
  No. of per-subject HE Events Min: 0
[2]; [13]
  No. of per-subject HE Events Estimated over 16 weeks: 1.29
  No. of per-subject HE Events Estimated over 52 weeks: 4.21
  No. of per-subject HE Events Max: 4
  No. of per-subject HE Events Min: 0
[2]; [14]
  No. of per-subject HE Events Estimated over 16 weeks: 0.28
  No. of per-subject HE Events Estimated over 52 weeks: 0.92
  No. of per-subject HE Events Max: 4
  No. of per-subject HE Events Min: 0
[2]; [15]
  No. of per-subject HE Events Estimated over 16 weeks: 0.33
  No. of per-subject HE Events Estimated over 52 weeks: 1.09
  No. of per-subject HE Events Max: 4
  No. of per-subject HE Events Min: 0
[2]; [16]
  No. of per-subject HE Events Estimated over 16 weeks: 0.41
  No. of per-subject HE Events Estimated over 52 weeks: 1.33
  No. of per-subject HE Events Max: 2
  No. of per-subject HE Events Min: 0
[2]; [17]
  No. of per-subject HE Events Estimated over 16 weeks: 0.96
  No. of per-subject HE Events Estimated over 52 weeks: 3.13
  No. of per-subject HE Events Max: 4
  No. of per-subject HE Events Min: 0
[2]; [18]
  No. of per-subject HE Events Estimated over 16 weeks: 0.97
  No. of per-subject HE Events Estimated over 52 weeks: 3.14
  No. of per-subject HE Events Max: 4
  No. of per-subject HE Events Min: 0
[2]; [19]
  No. of per-subject HE Events Estimated over 16 weeks: 0.25
  No. of per-subject HE Events Estimated over 52 weeks: 0.80
  No. of per-subject HE Events Max: 2
  No. of per-subject HE Events Min: 0
[2]; [20]
  No. of per-subject HE Events Estimated over 16 weeks: 0.39
  No. of per-subject HE Events Estimated over 52 weeks: 1.26
  No. of per-subject HE Events Max: 5
  No. of per-subject HE Events Min: 0
[2]; [21]
  No. of per-subject HE Events Estimated over 16 weeks: 0.61
  No. of per-subject HE Events Estimated over 52 weeks: 1.98
  No. of per-subject HE Events Max: 5
  No. of per-subject HE Events Min: 0
[2]; [22]
  No. of per-subject HE Events Estimated over 16 weeks: 1.35
  No. of per-subject HE Events Estimated over 52 weeks: 4.37
  No. of per-subject HE Events Max: 4
  No. of per-subject HE Events Min: 0
[2]; [23]
  No. of per-subject HE Events Estimated over 16 weeks: 1.36
  No. of per-subject HE Events Estimated over 52 weeks: 4.41
  No. of per-subject HE Events Max: 4
  No. of per-subject HE Events Min: 0
[2]; [24]
  No. of per-subject HE Events Estimated over 16 weeks: 0.29
  No. of per-subject HE Events Estimated over 52 weeks: 0.95
  No. of per-subject HE Events Max: 2
  No. of per-subject HE Events Min: 0
[2]; [25]
  No. of per-subject HE Events Estimated over 16 weeks: 0.45
  No. of per-subject HE Events Estimated over 52 weeks: 1.47
  No. of per-subject HE Events Max: 5
  No. of per-subject HE Events Min: 0
[2]; [26]
  No. of per-subject HE Events Estimated over 16 weeks: 0.90
  No. of per-subject HE Events Estimated over 52 weeks: 2.92
  No. of per-subject HE Events Max: 5
  No. of per-subject HE Events Min: 0
[2]; [27]
  No. of per-subject HE Events Estimated over 16 weeks: 1.38
  No. of per-subject HE Events Estimated over 52 weeks: 4.50
  No. of per-subject HE Events Max: 4
  No. of per-subject HE Events Min: 0
[2]; [28]
  No. of per-subject HE Events Estimated over 16 weeks: 1.40
  No. of per-subject HE Events Estimated over 52 weeks: 4.56
  No. of per-subject HE Events Max: 4
  No. of per-subject HE Events Min: 0
[1]
  Mean percent conversion of PAA prodrug to urinary PAGN: consistent
[3]; control group of healthy adults with normal hepatic function
  Mean percent conversion of HPN-100 to urinary PAGN: 68.6%
[3]; hepatic impairment with cirrhosis, Child-Pugh score A
  Mean percent conversion of HPN-100 to urinary PAGN: 79.6%
[3]; hepatic impairment with cirrhosis, Child-Pugh score B
  Mean percent conversion of HPN-100 to urinary PAGN: 58.2%
[3]; hepatic impairment with cirrhosis, Child-Pugh score C
  Mean percent conversion of HPN-100 to urinary PAGN: 85.0%
[3]; overall for the four subject groups
  Overall mean percent conversion of HPN-100 to urinary PAGN: about 75%
